The text below walks through data of publication PMC12648652, “Combining AlphaFold with Focused Virtual Library Design in the Development of Novel CCR2 and CCR5 Antagonists” (Journal of Chemical Information and Modeling, 2025).

For the experiment, the target named is CC chemokine receptor 2 (CCR2) (Homo sapiens, UniProt P41597).
CC chemokine receptor 2 (CCR2), sequence (P41597 whole entry): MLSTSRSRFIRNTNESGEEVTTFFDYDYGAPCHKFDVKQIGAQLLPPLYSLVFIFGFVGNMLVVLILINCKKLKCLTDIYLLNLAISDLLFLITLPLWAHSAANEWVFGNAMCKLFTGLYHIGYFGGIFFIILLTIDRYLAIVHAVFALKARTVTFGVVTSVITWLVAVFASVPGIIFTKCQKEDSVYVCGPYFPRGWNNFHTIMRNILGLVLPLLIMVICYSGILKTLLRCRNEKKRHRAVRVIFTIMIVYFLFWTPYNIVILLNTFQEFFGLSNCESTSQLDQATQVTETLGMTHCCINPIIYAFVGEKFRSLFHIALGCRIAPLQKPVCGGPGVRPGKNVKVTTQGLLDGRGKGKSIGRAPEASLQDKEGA

Regarding `O=S(=O)(Nc1cncc(N2CCOCC2)n1)c1ccc(Cl)c(Cl)c1` [compound 17, LUF8075], the Ki (usually a measure of affinity in units of concentration, obtained from inhibition or displacement) came out at 1.32 µM. This counts as single-digit micromolar.

The molecule `COc1ccc(S(=O)(=O)Nc2cncc(N3CCOCC3)n2)cc1` [compound 13, LUF8070] yielded a Ki of 3.26 µM. This Ki lies about 2.5-fold higher than the previous one.

As for `O=S(=O)(Nc1cncc(N2CCCCC2)n1)c1ccc(Cl)c(C(F)(F)F)c1` [compound 20, LUF8100], the affinity corresponds to a Ki of 5.95 µM. This Ki lies about 1.8-fold higher than the previous one.
